Results reported in patent US20230097700A1, “AZETIDINE SULFONAMIDE COMPOUND” (DAIICHI SANKYO COMPANY, LIMITED, priority 2019, published 2023).
Counter-ions that a name gives are not always drawn.

Test system: activated T cells (CD4+ T cells derived from the mouse spleen)
Experiment: Incorporation of 3H-thymidine into activated T cells
Assay type: cell-based, mouse (C57BL/6J)
Conditions: 3H-thymidine incorporation, mouse spleen CD4+ T cells activated with Dynabeads Mouse T-Activator CD3/CD28
Procedure: Effect of a test substance on incorporation of ^3H-thymidine was evaluated using T cells derived from the mouse spleen. The spleen was excised out from a C57BL/6J mouse euthanized, cut into pieces, ground on a cell strainer (40 μm mesh) and centrifuged to collect spleen cells. CD4+ T cells were isolated from the spleen cells by use of EasySep Mouse CD4+ T cell isolation kit (STEMCELL Technologies). CD4+ T cells were seeded to a 96-well round-bottom plate. Test substance dissolved in DMSO (dimethyl sulfoxide) or vehicle (DMSO) was added to culture medium and Dynabeads Mouse T-Activator CD3/CD28 (Thermo Fisher Scientific Inc.) was added. Culture was carried out at 37° C. in 5% CO2. After culture was carried out for 24 hours, ^3H-thymidine (PerkinElmer) diluted with the culture medium was added to individual wells. Culture was further carried out overnight at 37° C. in 5% CO2. In order to measure ^3H-thymidine incorporated in nuclei of the cells, the cells were collected on a filter plate UniFilter-96 GF/B (PerkinElmer) by use of a FilterMate Universal Harvester (PerkinElmer). After the filter plate was placed in a dryer and allowed to stand still for 2 hours or more, scintillation cocktail MicroScint-O (PerkinElmer) was added and radioactivity was measured by TopCount NXT (PerkinElmer). With the radioactivity of a group not containing a test substance being specified as 100% and the radioactivity of a group not activated being specified as 0%, relative radioactivity values of individual wells to which the test substance was added (proliferation rate, % of vehicle) were calculated. The values of “% of vehicle” were entered in analysis software Prism (Version 4.03, GraphPad Software). “Nonlinear regression Log (inhibitor) vs reaction variable tilt” was selected and sigmoid type-fitting (Bottom=0, Top=100) was carried out to calculate 50% inhibition concentration (IC50). The compound of the present invention suppresses ^3H-thymidine incorporation in activated T cells.

IC50 | SMILES
24 nM | N[C@@H](Cc1cccc(S(=O)(=O)N2CC(Oc3ccc(F)cc3)(c3ccc(F)c(F)c3)C2)c1)C(=O)O [Example 37, (2S)-2-Amino-3-{3-[3-(3,4-difluorophenyl)-3-(4-fluorophenoxy)azetidin-1-sulfonyl]phenyl}propanoic acid monohydrochloride]
17 nM | N#Cc1ccc(OC2(c3ccc(F)c(F)c3)CN(S(=O)(=O)c3cccc(C[C@H](N)C(=O)O)c3)C2)cc1 [Example 38, (2S)-2-Amino-3-{3-[3-(4-cyanophenoxy)-3-(3,4-difluorophenyl)azetidin-1-sulfonyl]phenyl}propanoic acid monohydrochloride]
14 nM | NC(=O)c1ccc(OC2(c3ccc(F)c(F)c3)CN(S(=O)(=O)c3cccc(C[C@H](N)C(=O)O)c3)C2)cc1 [Example 39, (2S)-2-Amino-3-{3-[3-(4-carbamoylphenoxy)-3-(3,4-difluorophenyl)azetidin-1-sulfonyl]phenyl}propanoic acid monohydrochloride]
18 nM | Cc1cccc(OC2(c3ccccc3)CN(S(=O)(=O)c3cccc(C[C@H](N)C(=O)O)c3)C2)c1 [Example 43, (2S)-2-Amino-3-(3-{[3-(3-methylphenoxy)-3-phenylazetidin-1-yl]sulfonyl}phenyl)propanoic acid monohydrochloride]
23 nM | Cc1ccc(OC2(c3ccccc3)CN(S(=O)(=O)c3cccc(C[C@H](N)C(=O)O)c3)C2)cc1F [Example 45, (2S)-2-Amino-3-(3-{[3-(3-fluoro-4-methylphenoxy)-3-phenylazetidin-1-yl]sulfonyl}phenyl)propanoic acid monoformate]
31 nM | Cc1ccc(OC2(c3ccc(F)cc3)CN(S(=O)(=O)c3cccc(C[C@H](N)C(=O)O)c3)C2)cn1 [Example 46, (2S)-2-Amino-3-[3-({3-(4-fluorophenyl)-3-[(6-methylpyridin-3-yl)oxy]azetidin-1-yl}sulfonyl)phenyl]propanoic acid dihydrochloride]
34 nM | N[C@@H](Cc1cccc(S(=O)(=O)N2CC(Oc3ccc(F)cc3)(c3ccc(F)cn3)C2)c1)C(=O)O [Example 47, (2S)-2-Amino-3-(3-{[3-(4-fluorophenoxy)-3-(5-fluoropyridin-2-yl)azetidin-1-yl]sulfonyl}phenyl)propanoic acid dihydrochloride]
22 nM | CCc1ccc(OC2(c3ccc(F)cc3)CN(S(=O)(=O)c3cccc(C[C@H](N)C(=O)O)c3)C2)cn1 [Example 48, (2S)-2-Amino-3-[3-({3-[(6-ethylpyridin-3-yl)oxy]-3-(4-fluorophenyl)azetidin-1-yl}-sulfonyl)phenyl]propanoic acid dihydrochloride]
36 nM | Cc1ncc(OC2(c3ccc(F)cc3)CN(S(=O)(=O)c3cccc(C[C@H](N)C(=O)O)c3)C2)cc1F [Example 49, (2S)-2-Amino-3-[3-({3-[(5-fluoro-6-methylpyridin-3-yl)oxy]-3-(4-fluorophenyl)azetidin-1-yl}sulfonyl)phenyl]propanoic acid dihydrochloride]
24 nM | Cc1ccc(OC2(c3ccc(F)cn3)CN(S(=O)(=O)c3cccc(C[C@H](N)C(=O)O)c3)C2)cc1 [Example 50, (2S)-2-Amino-3-(3-{[3-(5-fluoropyridin-2-yl)-3-(4-methylphenoxy)azetidin-1-yl]sulfonyl}phenyl)propanoic acid dihydrochloride]
6.6 nM | N[C@@H](Cc1cccc(S(=O)(=O)N2CC(Oc3ccc(B(O)O)cc3)(c3ccccc3)C2)c1)C(=O)O [Example 52, (2S)-2-Amino-3-(3-{[3-(4-boronophenoxy)-3-phenylazetidin-1-yl]sulfonyl}phenyl)propanoic acid monoformate]
8.7 nM | N[C@@H](Cc1cccc(S(=O)(=O)N2CC(Oc3ccc(Cl)cc3)(c3ccc(Cl)cc3)C2)c1)C(=O)O [Example 53, (2S)-2-Amino-3-(3-{[3-(4-chlorophenoxy)-3-(4-chlorophenyl)azetidin-1-yl]sulfonyl}phenyl)propanoic acid monoformate]
4.8 nM | N[C@@H](Cc1cccc(S(=O)(=O)N2CC(Oc3ccc(F)cc3)(c3ccc(Cl)cc3)C2)c1)C(=O)O [Example 54, (2S)-2-Amino-3-(3-{[3-(4-chlorophenyl)-3-(4-fluorophenoxy)azetidin-1-yl]sulfonyl}phenyl)propanoic acid monoformate]
7.8 nM | N[C@@H](Cc1cccc(S(=O)(=O)N2CC(Oc3cccc(F)c3)(c3ccc(Cl)cc3)C2)c1)C(=O)O [Example 55, (2S)-2-Amino-3-(3-{[3-(4-chlorophenyl)-3-(3-fluorophenoxy)azetidin-1-yl]sulfonyl}phenyl)propanoic acid monoformate]
240 nM | CCn1cc(OC2(c3ccc(F)cc3)CN(S(=O)(=O)c3cccc(C[C@H](N)C(=O)O)c3)C2)cn1 [Example 56, (2S)-2-Amino-3-[3-({3-[(1-ethyl-1H-pyrazol-4-yl)oxy]-3-(4-fluorophenyl)azetidin-1-yl)sulfonyl)phenyl]propanoic acid dihydrochloride]
16 nM | COc1ccc(OC2(c3ccc(F)cc3)CN(S(=O)(=O)c3cccc(C[C@H](N)C(=O)O)c3)C2)cn1 [Example 57, (2S)-2-Amino-3-[3-({3-(4-fluorophenyl)-3-[(6-methoxypyridin-3-yl)oxy]azetidin-1-yl}sulfonyl)phenyl]propanoic acid monoformate]
16 nM | N[C@@H](Cc1cccc(S(=O)(=O)N2CC(Oc3ccc4c(c3)COB4O)(c3ccc(F)cc3)C2)c1)C(=O)O [Example 58, (2S)-2-Amino-3-[3-({3-(4-fluorophenyl)-3-[(1-hydroxy-1,3-dihydro-2,1-benzoxaborol-5-yl)oxy]azetidin-1-yl)sulfonyl)phenyl]propanoic acid monoformate]
18 nM | Cc1ccc(C2(Oc3cccc(F)c3)CN(S(=O)(=O)c3cccc(C[C@H](N)C(=O)O)c3)C2)cc1 [Example 59, (2S)-2-Amino-3-(3-{[3-(3-fluorophenoxy)-3-(4-methylphenyl)azetidin-1-yl]sulfonyl}phenyl)propanoic acid monoformate]
14 nM | CC(=O)c1ccc(OC2(c3ccc(F)cn3)CN(S(=O)(=O)c3cccc(C[C@H](N)C(=O)O)c3)C2)cc1 [Example 60, (2S)-3-(3-{[3-(4-acetylphenoxy)-3-(5-fluoropyridin-2-yl)azetidin-1-yl]sulfonyl}phenyl)-2-aminopropanoic acid dihydrochloride]
9.9 nM | NC(=O)c1ccc(OC2(c3ccc(Cl)cc3)CN(S(=O)(=O)c3cccc(C[C@H](N)C(=O)O)c3)C2)cc1 [Example 61, (2S)-2-Amino-3-(3-{[3-(4-carbamoylphenoxy)-3-(4-chlorophenyl)azetidin-1-yl]sulfonyl}phenyl)propanoic acid monohydrochloride]
23 nM | NC(=O)c1ccc(OC2(c3ccc(F)cc3)CN(S(=O)(=O)c3cccc(C[C@H](N)C(=O)O)c3)C2)cn1 [Example 86a, dihydrochloride]
17 nM | N#Cc1ccc(OC2(c3ccc(F)cc3)CN(S(=O)(=O)c3cccc(C[C@H](N)C(=O)O)c3)C2)cn1 [Example 86b, monoformate]
19 nM | N[C@@H](Cc1cccc(S(=O)(=O)N2CC(Oc3ccc(Cl)cc3)(c3ccccc3)C2)c1)C(=O)O [Example 87]
15 nM | N[C@@H](Cc1cccc(S(=O)(=O)N2CC(Oc3ccccc3)(c3ccccc3)C2)c1)C(=O)O [Example 88, (2S)-2-Amino-3-(3-{[3-(3-phenoxy)-3-phenylazetidin-1-yl]sulfonyl}phenyl)propanoic acid]
3.4 nM | N[C@@H](Cc1cccc(S(=O)(=O)N2CC(Oc3ccc4[nH]ncc4c3)(c3ccccc3)C2)c1)C(=O)O [Example 90, (2S)-2-Amino-3-(3-{3-[(1H-indazol-5-yl)oxy]-3-phenylazetidin-1-sulfonyl}phenyl)propanoic acid]
